The text below walks through data of US20240043420A1, “7-AZAINDOLE COMPOUNDS FOR INHIBITION OF BCR-ABL TYROSINE KINASES” (EnLiven Therapeutics, Inc., priority 2020, published 2024).

Experiment [1] concerns K562 cells. In words: K562 cell proliferation assay (CellTiter-Glo). It counts as cell-based. The following applies: Homo sapiens, K562, 72 h, CellTiter-Glo viability, read-out: Cell Line (IC50, nM) K562. In outline: (§1)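 Cells in IMDM/10% FBS seeded at 2,000 (K562) or 1,500 (HL60) per well, exposed to serially diluted compounds for 72 h at 37 °C, 5% CO2. Viability by CellTiter-Glo luminescence, normalized between DMSO (high) and cell-free media (low) controls.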

For experiment [2], the system named is HL60 cells. Put plainly: HL60 cell proliferation assay (CellTiter-Glo). Type of experiment: cell-based. Conditions: Homo sapiens, HL-60, 72 h, CellTiter-Glo viability, read-out: Cell Line (IC50, nM) HL60. In outline: as §1
(In general: ATP-based viability assays read luminescence as a measure of living cells.)

In experiment [3] the target is T1, ABL1 (Homo sapiens, UniProt P00519).
T1 construct: purchased Carna Biosciences
In words: Luminescence-based ABL kinase assay (ADP-Glo, 300 μM ATP). It counts as biochemical. In outline: (§2)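 ABL1 (3.325 nM in the enzyme solution) was preincubated with compound for 30 min at RT in HEPES pH 7.5 buffer with MgCl2, EGTA, DTT, BSA and Brij-35. Adding Peptide 2 and ATP (6 μM and 1.2 mM in the start solution) began a 90 min RT reaction. ADP-Glo luminescence gave % activity and IC50.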

For experiment [4], the target named is ABL1 (T315I) (Homo sapiens, UniProt P00519, T315I). Put plainly: Luminescence-based ABL kinase assay (ADP-Glo, 300 μM ATP), T315I mutant. Type of experiment: biochemical. In outline: as §2
Background: ADP-Glo first removes unused ATP, then detects ADP through luciferase.

Experiment [5] relates to pCRKL in K562 cells. Put plainly: pCRKL ELISA assay in K562 cells. Type of experiment: cell-based. The following applies: Homo sapiens, 1.5 h, 90 minutes incubation, read-out: PCRKL ELISA, Cell Line IC50 (nM) K562. The protocol: (§3) K562 or Ba/F3 ABL T315I cells (2.0*10^5 cells/100 μl/well) were seeded in 96 well (Corning, cat #3799). Compounds were dissolved in DMSO, serially diluted in DMSO and then were added, mixed, and incubated for 90 minutes at 37° C., 5% CO2. Following the 90-minute incubation, plates were centrifuged for 5 min at 3000 RPM and supernatant was removed from each well. Cells were washed 3 times with 150 μl PBS prior to addition of 100 μl cell RIPA lysis buffer (Boston BioProducts, cat #BP-115D) supplied with 1×complete ULTRA cocktail inhibitor (Roche, 05892791001) and 1×PhosSTOP Phosphatase Inhibitor Cocktail Tablets (Roche, 04906837001). Cells were incubated with lysis buffer for 1 hour at 4° C. prior to storage at −80 C.
(§4) A capture antibody able to detect phosphorylated and non-phosphorylated CRKL (R&D Systems, cat #AF5127) was added to Meso Scale Discovery (MSD) standard bind plates (MSD, cat #L15XA-3) at 5 ug/mL and incubated at 4° C. overnight. The next day, plates were washed with PBS+0.05% Tween20 (PBST) and 150 μl of 5% BSA blocking solution was added for 1 hour at room temperature with shaking. Plates were washed with PBST. Lysates were thawed and 30 μl of lysate was added to the MSD plates and incubated for 2 hours at room temperature with shaking. MSD plates were washed with PBST and 30 μl of a detection antibody that binds phosphorylated pCRKL (R&D Systems, cat #MAB6910) was added at 1 μg/mL to each well. Plates were incubated for 1 hour at room temperature with shaking. Plates were washed with PBST prior to addition of 30 μl of a sulfo tagged goat anti mouse detection antibody (MSD cat #R32AC-1). Plates were incubated for 1 hour at room temperature with shaking. Plates were washed with PBST prior to addition of 150 ul of 1×MSD read buffer T (MSD, cat 4R92TC-2). Electrochemiluminescence (ECLU) was read on an MSD plate reader (Meso Scale Discovery). The remaining activity by calculated as follows: 00 Relative activity=100×(ELCUsample−ECLULC)/(ECLUHC−ECLULC). The low and high controls (LC/HC) are generated from lysate from wells without cells or with cells treated with 0.1% DMSO, respectively. IC50 values were calculated using XLFit software using a nonlinear regression model with a sigmoidal dose response and are shown in Table 4 and Table 5 below.
For orientation: In an ELISA, binding on a coated surface is turned into a signal by an enzyme label.

In experiment [6] the test system is pCRKL in Ba/F3 ABL1 (T315I) cells. In words: pCRKL ELISA assay in Ba/F3 ABL T315I cells. Type of experiment: cell-based. The following applies: Mus musculus, BaF3, 1.5 h, 90 minutes incubation, read-out: pCRKL ELISA, Cell Line IC50 (nM) Ba/F3 ABL1 (T315I). The protocol:
as §3, §4

Regarding `COc1ncccc1-c1c[nH]c2nc(NC(=O)[C@@H]3C[C@@H]3F)ccc12` [Compound 27, (1S,2S)-2-fluoro-N-(3-(2-methoxypyridin-3-yl)-1H-pyrrolo[2,3-b]pyridin-6-yl)cyclopropane-1-carboxamide], the IC50 was 156 nM in experiment [1]; greater than 10000 nM in experiment [2]; 29 nM in experiment [3]; 20.2 nM in experiment [4]; 164 nM in experiment [5]; 183 nM in experiment [6].
For the compound `COc1ccccc1-c1n[nH]c2nc(NC(=O)[C@@H]3C[C@@H]3F)ccc12` [Compound 54, (1S,2S)-2-fluoro-N-[3-(2-methoxyphenyl)-1H-pyrazolo[3,4-b]pyridin-6-yl]cyclopropane-1-carboxamide], the IC50 in experiment [1] is 88.4 nM; in experiment [2] it was greater than 10000 nM; in experiment [3], 14.3 nM; in experiment [4], 16.3 nM; in experiment [5] it was 95.8 nM; in experiment [6] it was 198 nM.
Take `COc1ccnc(OC)c1-c1c[nH]c2nc(NC(=O)[C@@H]3C[C@@H]3F)ccc12` [Compound 75, (1S,2S)—N-[3-(2,4-dimethoxypyridin-3-yl)-1H-pyrrolo[2,3-b]pyridin-6-yl]-2-fluorocyclopropane-1-carboxamide]: the IC50 was 54.6 nM in experiment [1]; greater than 10000 nM in experiment [2]; 15.1 nM in experiment [3]; 17.6 nM in experiment [4]; 86.3 nM in experiment [5]; 162 nM in experiment [6].
Turning to `COc1ncc(F)c(OC)c1-c1c[nH]c2nc(NC(=O)[C@@H]3C[C@@H]3F)ccc12` [Compound 76, (1S,2S)-2-fluoro-N-[3-(5-fluoro-2,4-dimethoxypyridin-3-yl)-1H-pyrrolo[2,3-b]pyridin-6-yl]cyclopropane-1-carboxamide], the IC50 in experiment [1] is 35.8 nM; in experiment [2], greater than 10000 nM; in experiment [3] it was 5.14 nM; in experiment [4], 7.38 nM; in experiment [5] it was 65.4 nM; in experiment [6] it was 50.1 nM.
In the case of `COc1c(-c2c[nH]c3nc(NC(=O)[C@@H]4C[C@@H]4F)ccc23)cc(F)c2[nH]cnc12` [Compound 95, (1S,2S)-2-fluoro-N-(3-(7-fluoro-4-methoxy-1H-benzo[d]imidazol-5-yl)-1H-pyrrolo[2,3-b]pyridin-6-yl)cyclopropanecarboxamide], the IC50 in experiment [1] was 221 nM; in experiment [2], greater than 10000 nM; in experiment [3], 6.32 nM; in experiment [4], 2.14 nM; in experiment [5], 656 nM; in experiment [6] it was 429 nM.
With `COc1ccc(F)cc1-c1n[nH]c2nc(NC(=O)[C@@H]3C[C@@H]3F)ccc12` [Compound 98, (1S,2S)-2-fluoro-N-[3-(5-fluoro-2-methoxyphenyl)-1H-pyrazolo[3,4-b]pyridin-6-yl]cyclopropane-1-carboxamide], the IC50 is 106 nM in experiment [1]; greater than 10000 nM in experiment [2]; 16.4 nM in experiment [3]; 12.9 nM in experiment [4]; 174 nM in experiment [5]; 241 nM in experiment [6].
Take `COc1nc2ncsc2cc1-c1c[nH]c2nc(NC(=O)[C@@H]3C[C@@H]3F)ccc12` [Compound 146, (1S,2S)-2-fluoro-N-(3-[5-methoxy-[1,3]thiazolo[4,5-b]pyridin-6-yl]-1H-pyrrolo[2,3-b]pyridin-6-yl)cyclopropane-1-carboxamide]: the IC50 was 9.9 nM in experiment [1]; greater than 10000 nM in experiment [2]; 3.74 nM in experiment [3]; 14 nM in experiment [4]; 32 nM in experiment [5]; 112 nM in experiment [6].
Turning to `COc1cc2ncsc2c(F)c1-c1c[nH]c2nc(NC(=O)[C@@H]3C[C@@H]3F)ccc12` [Compound 147, (1S,2S)-2-fluoro-N-(3-(7-fluoro-5-methoxybenzo[d]thiazol-6-yl)-1H-pyrrolo[2,3-b]pyridin-6-yl)cyclopropane-1-carboxamide], the IC50 in experiment [1] was 16.1 nM; in experiment [2] it was greater than 10000 nM; in experiment [3], 5.54 nM; in experiment [4] it was 1.71 nM; in experiment [5] it was 35.7 nM; in experiment [6] it was 35.7 nM.
